In test [1] the target is T1, PI3Kα (wild-type), P110/P85α (Homo sapiens, UniProt P42336).
T1 construct: made in house; host or cells: SF9 insect cells
Kind of test: PI3 Kinase TR-FRET assay, PI3Kα (wild-type). Type of test: biochemical. As to the method:
The ability of compounds of the invention to inhibit PI3K activity was determined in a homogeneous TR-FRET assay using a PI3K assay kit (Millipore, USA; cat #33-016) according to manufacturer's instructions. PI3-Kinases (isoforms α, β, γ and δ) catalyze the phosphorylation of phosphatidylinositol, PIP2 to PIP3 in the presence of ATP and Mg^2+. The PIP3 product is detected by displacement of biotin-PIP3 from an energy transfer complex consisting of Europium labeled anti-GST monoclonal antibody, a GST-tagged PH domain, biotinylated PIP3 and Streptavidin-APC. Excitation of Europium in the complex results in an energy transfer to the APC and a fluorescence emission at 665 nm. The PIP3 product displaces biotin-PIP3 from the complex resulting in a loss of energy transfer and thus a decrease in signal.
To test for the ability of compounds to inhibit the activity of PI3Kα (wild-type), exemplary compounds of formula (I) were dissolved in DMSO and directly distributed into 384-well plates at a volume of 0.5 μL. 14.5 μL of P110/P85α/PIP2 mixture in buffer (obtained from the Millipore kit) containing MgCl2 (40 mM) and DTT (5 mM) was added to compound wells and incubated for 60 min at room temperature. P110/P85α was expressed in SF9 insect cells and purified nickel column extraction. Five ng of wild-type P110/P85α was used in the assay. The kinase reaction was started by the addition of ATP. The assay concentrations of both PIP2 and ATP were 10 μM. The reaction mixture was incubated for 30 min at room temperature and was terminated by the addition of stop mix and detection mix. Fluorescence was measured at 615 and 665 nm upon excitation at 340 nm in a Victor™ V5 fluorometer (Perkin Elmer, USA). The fluorescence emission ratio at 665 to 615 nm, proportional to the kinase activity, was plotted against the compound concentration to generate dose-response curves and IC50 values were determined using GraphPad Prism® 5 software.
In general terms: In TR-FRET formats the signal depends on donor and acceptor labels being close together.

The next test addresses T2, mTOR kinase (Homo sapiens, UniProt P42345).
T2 construct: purchased Millipore, USA
Kind of test: mTOR kinase TR-FRET assay. The note with it: read-out: mTO R. Format: biochemical. As to the method:
Compound inhibition for mTOR kinase was determined in a homogeneous TR-FRET assay using the Lance® ULight-p70 S6K (Thr 389) peptide (obtained from Perkin-Elmer). The ULight™-labeled synthetic peptide contains the amino acid residues surrounding Thr389 of human p70 S6K. The ULight-p70 S6K peptide is phosphorylated at Thr389 by mTOR. Phosphorylation motif: LGFTYVAP as substrate.
The compound dilution was carried out in 100% DMSO followed by a buffer dilution. The reaction buffer was HEPES (50 mM pH 7.5), EGTA (1 mM), MnCl2 (3 mM). Test compounds at various concentrations were pre-incubated with mTOR (Millipore, USA; 5 ng) for 60 min, and then the Lance® ULight-p70 S6K (Thr 389) peptide (50 nM) was added along with ATP (20 μM). After incubating the reaction mixture for 60 min at room temperature, the kinase reaction was terminated by the addition of EDTA (10 mM) followed by the addition of detection mix, i.e., 1 nM Eu-labeled anti-phospho-substrate antibody (Perkin Elmer, USA). The fluorescence emission at […] was measured upon excitation at 340 nm. IC50 values were subsequently determined using a sigmoidal dose-response curve (variable slope) in GraphPad Prism® 5 software.
Compounds of formula (I) caused inhibition of mTOR kinase activity as determined by this assay.

From patent US9115092B2, “Substituted quinazoline and pyrido-pyrimidine derivatives” (Asana Biosciences, LLC, priority 2010, dated 2015) come the findings set out here.

T1 sequence (P42336 whole entry): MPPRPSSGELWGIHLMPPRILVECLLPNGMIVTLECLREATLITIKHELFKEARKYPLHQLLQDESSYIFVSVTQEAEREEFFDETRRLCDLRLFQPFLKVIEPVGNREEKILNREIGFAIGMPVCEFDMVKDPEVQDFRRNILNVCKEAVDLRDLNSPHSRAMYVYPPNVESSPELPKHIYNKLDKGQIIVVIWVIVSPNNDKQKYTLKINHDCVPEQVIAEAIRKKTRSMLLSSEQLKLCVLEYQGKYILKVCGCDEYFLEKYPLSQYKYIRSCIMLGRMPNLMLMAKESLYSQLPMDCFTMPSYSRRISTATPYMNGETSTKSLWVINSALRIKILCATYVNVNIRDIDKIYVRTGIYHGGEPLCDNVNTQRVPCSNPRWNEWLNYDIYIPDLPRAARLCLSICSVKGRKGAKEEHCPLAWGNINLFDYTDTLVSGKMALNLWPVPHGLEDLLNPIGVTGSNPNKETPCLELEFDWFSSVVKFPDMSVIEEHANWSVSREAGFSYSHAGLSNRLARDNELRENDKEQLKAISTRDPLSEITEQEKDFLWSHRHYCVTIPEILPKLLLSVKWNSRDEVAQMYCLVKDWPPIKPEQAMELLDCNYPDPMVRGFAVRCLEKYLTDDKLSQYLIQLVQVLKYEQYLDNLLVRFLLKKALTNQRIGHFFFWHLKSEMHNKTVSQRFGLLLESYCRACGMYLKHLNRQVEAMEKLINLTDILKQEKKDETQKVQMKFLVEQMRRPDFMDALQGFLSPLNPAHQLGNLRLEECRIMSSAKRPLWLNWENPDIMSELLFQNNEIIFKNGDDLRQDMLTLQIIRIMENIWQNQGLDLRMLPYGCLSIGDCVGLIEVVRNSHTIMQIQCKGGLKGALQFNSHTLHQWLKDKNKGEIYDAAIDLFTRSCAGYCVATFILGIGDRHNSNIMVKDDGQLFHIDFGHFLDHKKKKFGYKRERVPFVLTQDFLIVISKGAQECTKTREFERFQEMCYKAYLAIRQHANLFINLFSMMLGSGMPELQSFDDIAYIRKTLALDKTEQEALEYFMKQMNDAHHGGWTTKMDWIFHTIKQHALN
T1 sequence (P27986 whole entry partner): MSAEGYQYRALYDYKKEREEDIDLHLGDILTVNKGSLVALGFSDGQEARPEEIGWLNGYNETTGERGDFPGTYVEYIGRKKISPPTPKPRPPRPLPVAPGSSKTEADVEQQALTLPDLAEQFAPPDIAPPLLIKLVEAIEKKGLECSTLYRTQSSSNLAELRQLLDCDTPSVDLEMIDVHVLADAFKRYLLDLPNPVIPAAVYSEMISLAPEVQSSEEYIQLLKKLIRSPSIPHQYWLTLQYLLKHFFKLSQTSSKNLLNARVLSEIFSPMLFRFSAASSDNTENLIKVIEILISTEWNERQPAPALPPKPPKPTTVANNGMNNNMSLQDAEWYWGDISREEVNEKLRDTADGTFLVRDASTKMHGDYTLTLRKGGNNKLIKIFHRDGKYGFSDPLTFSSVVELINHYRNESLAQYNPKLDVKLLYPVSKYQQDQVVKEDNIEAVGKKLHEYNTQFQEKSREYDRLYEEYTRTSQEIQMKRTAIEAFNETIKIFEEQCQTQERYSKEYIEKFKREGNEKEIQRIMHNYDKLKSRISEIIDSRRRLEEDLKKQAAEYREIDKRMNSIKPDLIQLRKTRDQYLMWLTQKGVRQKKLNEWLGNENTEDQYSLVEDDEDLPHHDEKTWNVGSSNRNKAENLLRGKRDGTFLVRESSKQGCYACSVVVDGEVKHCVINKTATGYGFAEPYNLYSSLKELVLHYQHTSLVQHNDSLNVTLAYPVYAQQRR

For the molecule `Cc1noc(C)c1-c1ccc2c(N3CCOCC3)nc(-c3ccc(NC(=O)Nc4ccc(C(=O)N(C)C)cc4)cc3F)nc2c1` [Example 252, 4-(3-(4-(7-(3,5-dimethylisoxazol-4-yl)-4-morpholino-quinazolin-2-yl)-3-fluorophenyl)ureido)-N,N-dimethyl-benzamide], the IC50 (in test [1]; on mTOR kinase) was 0.05 to 0.2 µM throughout.
Consider `Cc1ccc(-c2ccc3c(N4CCOCC4)nc(-c4ccc(NC(=O)Nc5ccc(C(=O)N(C)C)cc5F)cc4)nc3c2)cn1` [Example 166, 3-fluoro-N,N-dimethyl-4-(3-(4-(7-(6-methylpyridin-3-yl)-4-morpholino-quinazolin-2-yl)phenyl)ureido)-benzamide], for which the IC50 (in test [1]; on mTOR kinase) was below 0.05 µM throughout.
Consider `CN(C)C(=O)c1ccc(NC(=O)Nc2ccc(-c3nc(N4CCOCC4)c4cc(F)c(-c5cccnc5)cc4n3)cc2F)cc1` [Example 109, 4-(3-(2-fluoro-4-(6-fluoro-4-morpholino-7-(pyridin-3-yl)quinazolin-2-yl)phenyl)ureido)-N,N-dimethyl-benzamide], for which the IC50 (in test [1]; on mTOR kinase) was 0.05 to 0.2 µM each time.
Consider `CN(C)C(=O)c1ccc(NC(=O)Nc2ccc(-c3nc(N4CCOCC4)c4ccc(-c5cncc(F)c5)cc4n3)cc2)cc1` [Example 164, 4-(3-(4-(7-(5-fluoropyridin-3-yl)-4-morpholino-quinazolin-2-yl)phenyl)ureido)-N,N-dimethyl-benzamide], for which the IC50 (in test [1]; at mTOR kinase) was below 0.05 µM each time.
On to `CN(C)C(=O)c1ccc(NC(=O)Nc2cc(F)c(-c3nc(N4CCOCC4)c4ccc(-c5cncnc5)cc4n3)cc2F)cc1` [Example 279, 4-(3-(2,5-difluoro-4-(4-morpholino-7-(pyrimidin-5-yl)quinazolin-2-yl)phenyl)ureido)-N,N-dimethyl-benzamide], for which the IC50 (in test [1]; at mTOR kinase) was 0.05 to 0.2 µM throughout.
`CN(C)C(=O)c1ccc(NC(=O)Nc2ccc(-c3nc(N4CCOCC4)c4ccc(-c5cnc(N)nc5)cc4n3)cc2)cc1` [Example 76, 4-(3-{4-[7-(2-amino-pyrimidin-5-yl)-4-morpholin-4-yl-quinazolin-2-yl]-phenyl}-ureido)-N,N-dimethyl-benzamide]: the IC50 (in test [1]; at mTOR kinase) was below 0.05 µM throughout.
On to `CN(C)C(=O)c1ccc(NC(=O)Nc2ccc(-c3nc(N4CCOCC4)c4cc(F)c(-c5cccnc5)cc4n3)cc2)c(F)c1` [Example 173, 3-fluoro-4-(3-(4-(6-fluoro-4-morpholino-7-(pyridin-3-yl)quinazolin-2-yl)phenyl)ureido)-N,N-dimethyl-benzamide], for which the IC50 (in test [1]; on mTOR kinase) was below 0.05 µM throughout.
`CN(C)C(=O)c1ccc(NC(=O)Nc2ccc(-c3nc(N4CCOCC4)c4ncc(-c5cncnc5)cc4n3)cc2)cc1F` [Example 262, 2-fluoro-N,N-dimethyl-4-(3-(4-(4-morpholino-7-(pyrimidin-5-yl)pyrido[3,2-d]pyrimidin-2-yl)phenyl)ureido)-benzamide]: the IC50 (in test [1]; at mTOR kinase) was below 0.05 µM each time.
`CN(C)C(=O)c1ccc(NC(=O)Nc2ccc(-c3nc(N4CCOCC4)c4ccc(C(C)(C)O)cc4n3)cc2F)cc1` [Example 290, 4-(3-(2-fluoro-4-(7-(2-hydroxypropan-2-yl)-4-morpholino-quinazolin-2-yl)phenyl)ureido)-N,N-dimethyl-benzamide]: the IC50 in test [1] is 0.05 to 0.2 µM; on mTOR kinase it was below 0.05 µM.
For `Cc1ncccc1-c1ccc2c(N3CCOCC3)nc(-c3ccc(NC(=O)Nc4ccc(C(=O)N(C)C)cc4F)cc3)nc2c1` [Example 167, 3-fluoro-N,N-dimethyl-4-(3-(4-(7-(2-methylpyridin-3-yl)-4-morpholino-quinazolin-2-yl)phenyl)ureido)-benzamide], in that order: below 0.05 µM and below 0.05 µM.
On to `O=C(Nc1ccc(-c2nc(N3CCOCC3)c3ccc(-c4cccnc4F)cc3n2)cc1)Nc1ccc(N2CCCC2=O)cc1` [Example 292, 1-(4-(7-(2-fluoropyridin-3-yl)-4-morpholinoquinazolin-2-yl)phenyl)-3-(4-(2-oxopyrrolidin-1-yl)phenyl)urea], for which the IC50 on mTOR kinase is below 0.05 µM.
